Test results reported in paper PMC6881072, “The repositioning of epigenetic probes/inhibitors identifies new anti-schistosomal lead compounds and chemotherapeutic targets” (PLoS Neglected Tropical Diseases, 2019).
Entries after “also recorded” stand apart in the source; their conditions may differ. Where two headings read alike, the source gives them in different places.

Experiments:
[1] = system: miracidia; design: method as in Roquis et al., 2018; details: ref Roquis et al., 2018; cited from earlier work
[2] = system: adult male and female schistosome pairs; assay: In vitro adult schistosome screening (WHO/TDR motility, egg counts); type: cell-based, Schistosoma mansoni; details: for SELECTIVITY INDEX Adult Females: CC50 HepG2 / adult female EC50; for SELECTIVITY INDEX Adult Males: CC50 HepG2 / adult male EC50; for EC50: Schistosoma mansoni; for EC50 / adult worm motility and IVLE production: 72 h; for adult worm motility and IVLE production: 3.13 μM and 6.25 μM, vs DMSO
Description: In vitro screening was replicated three times on different dates to account for any biological variation. Briefly three adult worm pairs/well (48-well tissue culture plate format) were placed into DMEM (Gibco, Paisley, UK) supplemented with 10% (v/v) FCS (Gibco, Paisley, UK), 1% (v/v) L-glutamine (Gibco, Paisley, UK) and an antibiotic mixture (150 Units/ml penicillin and 150 μg/ml streptomycin; Gibco, UK). DMSO (0.5% negative control), AUR (10 μM concentration in 0.5% DMSO; positive control) and two-fold titrations of SGC compounds (50 μM– 6.25 μM or 50 μM– 0.05 μM; in 0.5% DMSO max) were added, and together, these adult worm/compound co-cultures were incubated at 37°C for 72 h in a humidified atmosphere containing 5% CO2. Following compound incubation, WHO/TDR readouts of adult worm motility, abundance of H3K36me2 (LLY-507 and BAY-598 treated worms only) in histone extracts and egg counts/well were recorded at 72 h.

[3] = system: S. mansoni schistosomula; assay: In vitro schistosomula screening (Roboworm platform), phenotype and motility; type: cell-based, Schistosoma mansoni; details: for hit / activity against schistosomula, single-point screen / schistosomula phenotype by microscopic assessment: 10 μM; for hit / activity against schistosomula, single-point screen / EC50 / schistosomula phenotype by microscopic assessment: 72 h; for hit / activity against schistosomula, single-point screen: hit cut-offs phenotype -0.15, motility -0.35; for SELECTIVITY INDEX Schistosomula Phenotype: CC50 HepG2 / schistosomula phenotype EC50; for EC50: Schistosoma mansoni; for SELECTIVITY INDEX Schistosomula Motility: CC50 HepG2 / schistosomula motility EC50
Description: Briefly, 384-well tissue culture plates (Perkin Elmer, cat 6007460), containing 20 μl of Basch medium, were wet-stamped using a Biomek NX^P liquid handling platform (Beckman Coulter, UK) with negative (0.625% dimethyl sulfoxide, DMSO) and positive controls (AUR and PZQ at 10 μM final concentration in 0.625% DMSO) as well as 37 SGC compounds (at 10 μM final concentration in 0.625% DMSO). […] To each pre-loaded well (single concentration or titration screens), a total of 100–120 mechanically transformed schistosomula (in 60 μl) were deposited via a WellMate (Thermo Scientific, UK). Schistosomula/compound co-cultures (80 μl in total) were then incubated at 37°C for 72 h in a humidified atmosphere containing 5% CO2. At 72 h, tissue culture plates (containing schistosomula/compound co-cultures) were imaged under the same conditions (37°C in a humidified atmosphere containing 5% CO2) using an ImageXpressXL high content imager (Molecular Devices, UK) with subsequent images processed for phenotype and motility as previously reported and successfully implemented by us at Aberystwyth University. Single point schistosomula screens (10 μM) were repeated two or three times whereas dose response titrations were performed once. Zˊ values obtained from all schistosomula screens ranged from 0.27–0.48 (mean = 0.40) for phenotype and 0.41–0.56 (mean = 0.48) for motility.

[4] = system: H3K36me2; assay: H3K36me2 detection in adult worm histone extracts; type: cell-based, Schistosoma mansoni; details: adult schistosome pairs, 72 h, vs DMSO
Description: LLY-507 (6.25 μM), BAY-598 (25 μM) or siSmp_000700 treated male and female worms (alongside DMSO or siLuc controls; 21 individuals per condition) were homogenized with a TissueLyser (Qiagen) and total histones extracted using the EpiQuik^TM Total Histone Extraction Kit (Epigentek). Levels of H3K36me2 in adult histone extracts were measured using the EpiQuik^TM Global Di-Methyl Histone H3-K36 Quantification Kit (Fluorimetric, Epigentek). Technical duplicates of three biological replicates of each treatment were analysed according to the manufacturer’s instructions. Fluorescent readings (530EX/590EM nm) were obtained using a POLARstar Omega (BMG Labtech, UK) microtiter plate reader. Fluorescent values of the samples were corrected by subtracting the fluorescent readings of the blank (buffer only, provided in the kit). The mean of the adjusted control values (DMSO for LLY-507/BAY-598 treated worms and siLuc for siSmp_000700 treated worms) was set at 100% H3K36me2 and the standard deviation (SD) was calculated from the normalised values.

[5] = HepG2 cell cytotoxicity, MTT assay; type: cell-based, Human; details: human, HepG2 cells, read-out: CC50 (HepG2) (95% Confidence Intervals)
Description: (§1) Human Hepatocyte Carcinoma (HepG2) cells (Sigma Aldrich, UK) were utilized to assess SGC epigenetic probe cell cytotoxicity in the application of the MTT (3-(4,5-dimethylthiazol-2-yl)-2,5-diphenyltetrazolium bromide) assay. Briefly, cells were passaged at 70–80% confluence and seeded (20,000 cells/ 50 μL per well) in a 96-well, black-sided, clear-bottomed falcon plate (Fisher Scientific, UK) with the final plate column (8 wells) being treated as a blank (media only). Following a 24 h incubation (5% CO2, 37°C, humidified), HepG2 cells were then treated with 50 μL of pre-warmed media (37°C) containing SGC EPs/EIs at 200 μM to 0.02 μM (final concentration 100 μM, 10 μM, 1 μM, 0.1 μM and 0.01 μM). Three positive (1% Triton X-100) and negative (1% DMSO) control wells per plate were additionally included.
(§2) After addition of compounds, each plate was then incubated for a further 20 h before application of MTT for assessment of overt compound cytotoxicity using the MTT assay. The MTT assay was read using the POLARstar Omega (BMG LabTech, UK) plate reader at an absorbance of 570 nm. CC50s were calculated in GraphPad Prism.

[6] = system: HepG2 cells; assay: HepG2 cell cytotoxicity, MTT assay; type: cell-based, Human; details: 20 h, read-out: CC50 (HepG2) (95% Confidence Intervals)
Description: as §1, §2

[7] = system: in vitro laid eggs (IVLEs) of adult worm pairs; assay: Vitellocyte and egg volume quantification of in vitro laid eggs (LSCM); type: cell-based, Schistosoma mansoni; details: 72 h, n = 10 eggs
Source text: Fluorescent microscopic images (10 eggs per treatment) were captured on a Leica TCS SP8 super resolution laser confocal microscope fitted with a 63 X (water immersion) objective using the Leica Application Suite X. Green (egg autofluorescence) fluorescence was visualised with an argon or diode-pumped, solid state (DPSS) laser at 488 nm. DAPI was visualised using a 405 nm blue diode laser. The number of vitellocytes (DAPI^+ cells) and overall volume (mapped by the green autofluorescence) for individual eggs were calculated using IMARIS 7.3 software (Bitplane).

[8] = cited from earlier work
[9] = motility, adult females, read-out: ADULT EC50 (95% Confidence Intervals) Females
[10] = motility, adult males, read-out: ADULT EC50 (95% Confidence Intervals) Males
[11] = two-fold titration 10 μM–0.625 μM, single replicate, approximate, read-out: SCHISTOSOMULA EC50 Phenotype
[12] = two-fold titration 10 μM–0.625 μM, single replicate, approximate, read-out: SCHISTOSOMULA EC50 Motility

Compound	SELECTIVITY INDEX Adult Females [2]	SELECTIVITY INDEX Adult Males [2]	EC50 [2, 9]	EC50 [2, 10]	hit / activity against schistosomula, single-point screen [3]	SELECTIVITY INDEX Schistosomula Phenotype [3]	EC50 [3, 11]	CC50 at 20 h [5]	SELECTIVITY INDEX Schistosomula Motility [3]	further results
COc1cc2c(cc1OCCCN1CCCC1)N=C(N)C21CCC1 [A-366, 5'-Methoxy-6'-[3-(1-pyrrolidinyl)propoxy]spiro[cyclobutane-1,3'-indol]-2'-amine]	–	–	–	–	–	–	–	–	–	miracidia to sporocyst transformation [1]: completely block
CCN(C(=O)CO)[C@H]1CN(C(=NC#N)Nc2cccc(OC(F)F)c2)N=C1c1ccc(Cl)c(Cl)c1 [BAY-598, (S)-N-[1-{N′-Cyano-N-[3-(difluoromethoxy)phenyl]carbamimidoyl}-3-(3,4-dichlorophenyl)-4,5-dihydro-1H-pyrazol-4-yl]-N-ethyl-2-hydroxyacetamide]	3.02	2.24	16.5 µM	22.4 µM	are hits against schistosomula; also recorded: both active against schistosomula	10.40	4.81 µM	> 50 µM	–	reduction in H3K36me2 ([4]; 25 μM): 23%
COc1ccccc1C(=O)Nc1cc2c(cc1N1CCCC1)n(C)c(=O)n2C [PFI-4, N-(1,3-dimethyl-2-oxo-6-(pyrrolidin-1-yl)-2,3-dihydro-1H-benzo[d]imidazol-5-yl)-2-methoxybenzamide]	3.20	3.33	–	–	–	19.18	–	> 50 µM	19.52	EC50 ([2]; read-out: ADULT EC50 (95% Confidence Intervals) Females): 31.2 µM; EC50 ([2]; read-out: ADULT EC50 (95% Confidence Intervals) Males): 30.1 µM; EC50 ([3]; read-out: SCHISTOSOMULA EC50 Motility): 5.12 µM; EC50 ([3]; read-out: SCHISTOSOMULA EC50 Phenotype): 5.22 µM; CC50 [6]: > 100 µM
CCOC(=O)CCNc1cc(N2CCc3ccccc3CC2)nc(-c2ccccn2)n1 [GSK-J4, ethyl 3-[[2-pyridin-2-yl-6-(1,2,4,5-tetrahydro-3-benzazepin-3-yl)pyrimidin-4-yl]amino]propanoate]	8.78	25.49	11.4 µM	3.92 µM	–	18.62	5.37 µM	> 50 µM	16.55	adult worm motility and IVLE production [2]: led to adult worm motility and IVLE deficiencies; schistosomula phenotype by microscopic assessment [3]: phenotypes comparable to auranofin; EC50 [3, 12]: 6.04 µM; number of vitellocytes per egg (packaging into IVLEs) ([7]; 0.2 μM): significantly inhibited the packaging; overall egg volume ([7]; 0.2 μM): no difference; cell permeability [8]: cell-permeable; CC50 [6]: > 100 µM
CCCc1cc(C)[nH]c(=O)c1CNC(=O)c1cc(-c2ccnc(N3CCN(C)CC3)c2)cc2c1cnn2C(C)C [GSK343, N-[(1,2-Dihydro-6-methyl-2-oxo-4-propyl-3-pyridinyl)methyl]-1-(1-methylethyl)-6-[2-(4-methyl-1-piperazinyl)-4-pyridinyl]-1H-indazole-4-carboxamide, N-[(6-Methyl-2-oxo-4-propyl-1,2-dihydropyridin-3-yl)methyl]-6-[2-(4-methylpiperazin-1-yl)pyridin-4-yl]-1-(propan-2-yl)-1H-indazole-4-carboxamide]	1.16	1.17	25.3 µM	25 µM	identified as a hit	9.24	3.17 µM	29.2 µM	–	miracidia to sporocyst transformation [1]: completely block
O=C(O)CCNc1cc(N2CCc3ccccc3CC2)nc(-c2ccccn2)n1 [GSK-J1]	–	–	–	–	None of these chemotype controls demonstrated anti-schistosomula activity	–	–	–	–	adult worm motility and IVLE production [2]: did not substantially alter these phenotypes; number of vitellocytes per egg (packaging into IVLEs) ([7]; 6.25 μM): did not; overall egg volume ([7]; 6.25 μM): no difference; cell permeability ([8]; not told): cell impermeable
Cc1cn(CCN2CCN(c3ccccc3-c3cc(C#N)cc(C(=O)NCCCN4CCCC4)c3)CC2)c2ccccc12 [LLY-507, 5-(2-(4-(2-(9-methyl-7-aza-bicyclo[4.3.0]nona-1(6),2,4,8-tetraen-7-yl)-ethyl)-piperazin-1-yl)-phenyl)-3-((3-(pyrrolidin-1-yl)-propylamino)-formyl)-benzonitrile]	3.13	2.55	7.59 µM	9.32 µM	are hits against schistosomula; also recorded: both active against schistosomula	8.24	2.88 µM	23.8 µM	8.47	schistosomula phenotype by microscopic assessment [3]: phenotypes comparable to auranofin; EC50 [3, 12]: 2.81 µM; reduction in H3K36me2 ([4]; 6.25 μM): 25%
